This note sets out measurements from patent US9586978B2, “Anti-viral compounds” (AbbVie Inc., priority 2009, dated 2017).

Where two headings read alike, the source gives them in different places.

Data set [1] deals with HCV 1a replicon L31M, Y93H or Y93N mutant. Description: HCV 1a replicon assays in the presence of 40% HP, mutants. It counts as cell-based. The note with it: versus Example 109 of the '301 application.
Data set [2] can be described thus: AUC value (as defined above). It counts as in vivo.
Another data set has as its system HCV genotype 1a replicon. Kind of data set: HCV genotype 1a replicon assay. The class given is cell-based, Hepatitis C virus. From the text: (§1) [drawing 14] employs a biphenyl linker between the imidazole moieties. See WO2008021927(BMS). The EC50 values of BMS-790052 against different HCV genotypes were shown by Nettles et al., “BMS-790052 is a First-in-class Potent Hepatitis C Virus (HCV) NS5A Inhibitor for Patients with Chronic HCV Infection: Results from a Proof-of-concept Study”, 59th Annual Meeting of the American Association for the Study of Liver Diseases (Oct. 31-Nov. 1, 2008, San Francisco, Calif.; www.natap.org/2008/AASLD/AASLD_06.htm). […] See also Gao et al., NATURE 465:96-100 (2010). The compounds in Table 1 use different linkers between the imidazole moieties. Table 1 depicts the EC50 values of these compounds when tested using respective replicon assays in the presence of 5% (v/v) fetal bovine serum (FBS).
(§2) Table 2 compares compounds containing unsubstituted benzimidazole to those containing halo-substituted benzimidazole. Anti-viral activities were assessed using wild-type replicons (e.g., 1b WT or 1a WT) as well as replicons containing specific NS5A mutations (e.g., 1b L28T, 1b Y93H, 1a L31V, 1a Y93C, 1a M28V, or 1a Q30E) in the absence of FBS.
(§3) Table 3 compares compounds with different linkers between the benzimidazole moieties. Anti-viral activities were determined using 1a and 1b replicon assays. “HP” refers to human plasma. […] As compared to the phenyl linker
(Replicon systems follow genome replication, usually without infectious particles.)

The next data set concerns HCV genotype 1b replicon. Kind of data set: HCV genotype 1b replicon assay. The class given is cell-based, Hepatitis C virus.
Description: as §1, §2, §3

A further data set relates to HCV genotype 2a replicon. Kind of data set: HCV genotype 2a replicon assay. It counts as cell-based, Hepatitis C virus.
Description: as §1

Another data set deals with HCV genotype 2b replicon. Description: HCV genotype 2b replicon assay. It counts as cell-based, Hepatitis C virus.
Description: as §1

The test system of the next data set is HCV genotype 3a replicon. Description: HCV genotype 3a replicon assay. It counts as cell-based, Hepatitis C virus.
Description: as §1

In the next data set the test system is HCV genotype 4a replicon. Kind of data set: HCV genotype 4a replicon assay. It counts as cell-based, Hepatitis C virus.
Description: as §1

The test system of data set [3] is HCV 2a, 2b, 3a and 4a replicon. Kind of data set: HCV 2a, 2b, 3a and 4a replicon assays in the absence of human plasma. It counts as cell-based. The note with it: 3a and 4a replicons; for EC50 values, fold less than those of Example 4.25: absence of HP, versus Example 4.25. The procedure: The inhibitory effects of the compounds of the invention on HCV replication can be determined by measuring activity of the luciferase reporter gene. For example, replicon-containing cells can be seeded into 96 well plates at a density of 5000 cells per well in 100 μl DMEM containing 5% FBS. The following day compounds can be diluted in dimethyl sulfoxide (DMSO) to generate a 200× stock in a series of eight half-log dilutions. The dilution series can then be further diluted 100-fold in the medium containing 5% FBS. Medium with the inhibitor is added to the overnight cell culture plates already containing 100 μl of DMEM with 5% FBS. In assays measuring inhibitory activity in the presence of human plasma, the medium from the overnight cell culture plates can be replaced with DMEM containing 40% human plasma and 5% FBS. The cells can be incubated for three days in the tissue culture incubators after which time 30 μl of Passive Lysis buffer (Promega) can be added to each well, and then the plates are incubated for 15 minutes with rocking to lyse the cells. Luciferin solution (100 μl, Promega) can be added to each well, and luciferase activity can be measured with a Victor II luminometer (Perkin-Elmer). The percent inhibition of HCV RNA replication can be calculated for each compound concentration and the EC50 value can be calculated using nonlinear regression curve fitting to the 4-parameter logistic equation and GraphPad Prism 4 software.

The next data set has as its system HCV genotype 5a replicon. Description: HCV genotype 5a replicon assay. The note with it: replicon assay in the presence of 5% (v/v) FBS. The class given is cell-based, Hepatitis C virus.
Description: as §1

For the next data set, the system named is HCV genotype 6a replicon. Description: HCV genotype 6a replicon assay. The class given is cell-based, Hepatitis C virus.
Description: as §1

Data set [4] relates to HCV 1b replicon containing NS5A mutation Y93H. Description: HCV 1b Y93H replicon assay. The note with it: transient transfection assays. The class given is cell-based, Hepatitis C virus. Here is the method:
as §2

[5] abbreviates: Hepatitis C virus, 40% human plasma, Table 5, read-out: EC50 (nM, in the presence of 40% HP) 1a.
Setting [6] is: Hepatitis C virus, 40% human plasma, Table 5, read-out: EC50 (nM, in the presence of 40% HP) 1b.
The mark [7] stands for this setting: Hepatitis C virus, absence of human plasma, Table 5, read-out: EC50 (nM, in the absence of HP) 2a.
Where [8] appears, read: Hepatitis C virus, absence of human plasma, Table 5, read-out: EC50 (nM, in the absence of HP) 2b.
Where [9] appears, read: Hepatitis C virus, read-out: EC50 (nM, in the absence of HP) 3a, absence of human plasma, Table 5.
The mark [10] stands for this setting: Hepatitis C virus, absence of human plasma, Table 5, read-out: EC50 (nM, in the absence of HP) 4a.
Setting [11] is: replicon assay in the presence of 5% (v/v) FBS, read-out: EC50 (nM) 1a.
The mark [12] stands for this setting: replicon assay in the presence of 5% (v/v) FBS, read-out: EC50 (nM) 1b.
The mark [13] stands for this setting: replicon assay in the presence of 5% (v/v) FBS, read-out: EC50 (nM) 2a.
[14] abbreviates: replicon assay in the presence of 5% (v/v) FBS, read-out: EC50 (nM) 2b.
The mark [15] stands for this setting: read-out: EC50 (nM) 3a, replicon assay in the presence of 5% (v/v) FBS.
[16] abbreviates: replicon assay in the presence of 5% (v/v) FBS, read-out: EC50 (nM) 4a.
Where [17] appears, read: read-out: EC50 (nM) 6a, replicon assay in the presence of 5% (v/v) FBS.

Consider `COC(=O)N[C@H](C(=O)N1CCC[C@H]1c1nc2cc([C@H]3CC[C@H](c4cc5[nH]c([C@@H]6CCCN6C(=O)[C@@H](NC(=O)OC)C(C)C)nc5cc4F)N3c3ccc(C(C)(C)C)cc3)c(F)cc2[nH]1)C(C)C` [Example 6.1, methyl{(2S)-1-[(2S)-2-{5-[(2R,5R)-1-(4-tert-butylphenyl)-5-{5-fluoro-2-[(2S)-1-{(2S)-2-[(methoxycarbonyl)amino]-3-methylbutanoyl}pyrrolidin-2-yl]-1H-benzimidazol-6-yl}pyrrolidin-2-yl]-6-fluoro-1H-benzimidazol-2-yl}pyrrolidin-1-yl]-3-methyl-1-oxobutan-2-yl}carbamate], for which, in data set [1], the “EC50 value, fold less than that of Example 109 of the '301 application” value is listed as “at least 5 fold”. For the same compound, the “AUC value, fold greater than that of Example 109 of the '301 application” value in data set [2] (versus Example 109 of the '301 application) is “about 9 fold”.

On to `COC(=O)N[C@H](C(=O)N1CCC[C@H]1c1nc2cc([C@H]3CC[C@H](c4ccc5[nH]c([C@@H]6CCCN6C(=O)[C@@H](NC(=O)OC)C(C)C)nc5c4)N3c3ccc(N4CCC(c5ccccc5)CC4)cc3)ccc2[nH]1)C(C)C` [Example 4.25], for which the EC50 was determined as 1.5 nM in the data set with HCV genotype 1a replicon (setting [5]); 1.5 nM in the data set with HCV genotype 1b replicon (setting [6]); 0.5 nM in the data set on HCV genotype 2a replicon (setting [7]); 0.5 nM with HCV genotype 2b replicon (setting [8]); 0.5 nM with HCV genotype 3a replicon (setting [9]); 0.2 nM in the data set on HCV genotype 4a replicon (setting [10]). For the same compound, the EC50 in data set [3] (Hepatitis C virus, absence of human plasma) was 0.2 to 0.5 nM.

Regarding `COC(=O)N[C@H](C(=O)N1CCC[C@H]1c1ncc(-c2ccc(C3CCC(c4cnc([C@@H]5CCCN5C(=O)[C@@H](NC(=O)OC)C(C)C)[nH]4)CC3)cc2)[nH]1)C(C)C` (single isomer, unassigned) [drawing 18], the EC50 in the data set on HCV genotype 1a replicon (setting [11]) was above 10 nM; in the data set with HCV genotype 1b replicon (setting [12]), 8.5 nM; with HCV genotype 2a replicon (setting [13]) it was above 100 nM; in the data set with HCV genotype 2b replicon (setting [14]), above 10 nM; in the data set with HCV genotype 3a replicon (setting [15]) it was above 10 nM; in the data set on HCV genotype 4a replicon (setting [16]) it was 4 nM. The EC50 in the data set with HCV genotype 5a replicon and with HCV genotype 6a replicon (setting [17]) was above 10 nM throughout.

In the case of `COC(=O)N[C@H](C(=O)N1CCC[C@H]1c1nc2cc([C@H]3CC[C@H](c4ccc5[nH]c([C@@H]6CCCN6C(=O)[C@@H](NC(=O)OC)C(C)C)nc5c4)N3c3cc(F)c(N4CCC(c5ccccc5)CC4)c(F)c3)ccc2[nH]1)C(C)C` [Example 5.1, methyl{(2S)-1-[(2S)-2-{5-[(2R,5R)-1-[3,5-difluoro-4-(4-phenylpiperidin-1-yl)phenyl]-5-{2-[(2S)-1-{(2S)-2-[(methoxycarbonyl)amino]-3-methylbutanoyl}pyrrolidin-2-yl]-1H-benzimidazol-5-yl}pyrrolidin-2-yl]-1H-benzimidazol-2-yl}pyrrolidin-1-yl]-3-methyl-1-oxobutan-2-yl}carbamate], the EC50 with HCV genotype 1a replicon (setting [5]) was 0.1 nM; in the data set on HCV genotype 1b replicon (setting [6]) it was 0.2 nM; in the data set with HCV genotype 2a replicon (setting [7]), at most 0.05 nM; in the data set on HCV genotype 2b replicon (setting [8]), at most 0.05 nM; with HCV genotype 3a replicon (setting [9]), at most 0.05 nM; in the data set on HCV genotype 4a replicon (setting [10]), at most 0.05 nM. For the same compound, the “EC50 fold less than that of Example 37 of US 2010/0317568 against the 1b Y93H variant” value in [4] is recorded as “at least 10 fold”. Besides, the “EC50 values, fold less than those of Example 4.25” value in data set [3] is “at least 50 fold”. The “AUC value, fold greater than that of Example 2.9” value in data set [2] (versus Example 2.9) is “about 30 fold”.

Take `COC(=O)N[C@H](C(=O)N1CCC[C@H]1c1ncc(-c2ccc(C3CCC(c4cnc([C@@H]5CCCN5C(=O)[C@@H](NC(=O)OC)C(C)C)[nH]4)CC3)cc2)[nH]1)C(C)C` (single isomer, unassigned) [drawing 17]: the EC50 with HCV genotype 1a replicon (setting [11]) is 0.71 nM; in the data set with HCV genotype 1b replicon (setting [12]), 0.06 nM; in the data set with HCV genotype 2a replicon (setting [13]) it was 9 nM; in the data set with HCV genotype 2b replicon (setting [14]), 0.4 nM; with HCV genotype 3a replicon (setting [15]), 2.3 nM; with HCV genotype 4a replicon (setting [16]) it was 0.04 nM. Further, the EC50 in the data set with HCV genotype 5a replicon came to 0.08 nM; with HCV genotype 6a replicon (setting [17]) it was 0.5 nM.

For `COC(=O)N[C@H](C(=O)N1CCC[C@H]1c1ncc(C2=CCC(c3ccc(-c4cnc([C@@H]5CCCN5C(=O)[C@@H](NC(=O)OC)C(C)C)[nH]4)cc3)CC2)[nH]1)C(C)C` (stereo partly shown), the EC50 turned out to be 0.12 nM in the data set with HCV genotype 1a replicon (Hepatitis C virus, replicon assay in the presence of 5% (v/v) FBS, read-out: EC50 (nM) 1a); 0.03 nM in the data set with HCV genotype 1b replicon (Hepatitis C virus, replicon assay in the presence of 5% (v/v) FBS, read-out: EC50 (nM) 1b); 16 nM in the data set on HCV genotype 2a replicon (Hepatitis C virus, replicon assay in the presence of 5% (v/v) FBS, read-out: EC50 (nM) 2a); 0.09 nM in the data set on HCV genotype 2b replicon (Hepatitis C virus, replicon assay in the presence of 5% (v/v) FBS, read-out: EC50 (nM) 2b); 1.5 nM with HCV genotype 3a replicon (Hepatitis C virus, read-out: EC50 (nM) 3a, replicon assay in the presence of 5% (v/v) FBS); 0.03 nM in the data set on HCV genotype 4a replicon (Hepatitis C virus, replicon assay in the presence of 5% (v/v) FBS, read-out: EC50 (nM) 4a). For the same compound, the EC50 was 0.05 nM in the data set with HCV genotype 5a replicon (Hepatitis C virus) and 0.5 nM in the data set with HCV genotype 6a replicon (Hepatitis C virus, read-out: EC50 (nM) 6a, replicon assay in the presence of 5% (v/v) FBS).

Regarding `COC(=O)N[C@H](C(=O)N1CCC[C@H]1c1nc2cc([C@H]3CC[C@H](c4ccc5[nH]c([C@@H]6CCCN6C(=O)[C@@H](NC(=O)OC)C(C)C)nc5c4)N3c3ccc(N4CCC(c5ccccc5)CC4)c(F)c3)ccc2[nH]1)C(C)C` [Example 3.20, methyl{(2S)-1-[(2S)-2-{5-[(2R,5R)-1-[3-fluoro-4-(4-phenylpiperidin-1-yl)phenyl]-5-{2-[(2S)-1-{(2S)-2-[(methoxycarbonyl)amino]-3-methylbutanoyl}pyrrolidin-2-yl]-1H-benzimidazol-5-yl}pyrrolidin-2-yl]-1H-benzimidazol-2-yl}pyrrolidin-1-yl]-3-methyl-1-oxobutan-2-yl}carbamate], the EC50 with HCV genotype 1a replicon (setting [5]) is 0.5 nM; with HCV genotype 1b replicon (setting [6]), 0.6 nM; in the data set with HCV genotype 2a replicon (setting [7]) it was at most 0.05 nM; in the data set with HCV genotype 2b replicon (setting [8]) it was at most 0.05 nM; in the data set on HCV genotype 3a replicon (setting [9]) it was at most 0.05 nM; in the data set with HCV genotype 4a replicon (setting [10]), at most 0.05 nM. The “EC50 values, fold less than those of Example 4.25” value in [3] is listed as “at least 15 fold”.
